These results are taken from patent US20060160146A1, “Method of screening compound affecting amyloid beta production” (OTSUKA PHARMACEUTICAL CO., LTD., priority 2002, published 2006).

One test concerns α-secretase. The test can be described thus: α-secretase cleavage product (sAPPα) in culture supernatant of COS7 cells transiently expressing mutated APP, Western blotting. The class given is cell-based, monkey. Also on record: key to α-cleavage: ↓: indicates a reduced amount of secretase cleavage product; →: indicates an unchanged amount of each secretase cleavage product; ↑: indicates an increased amount of secretase cleavage product; 0: indicates no detection of each secretase cleavage product. To be noted: for α-cleavage: amount of sAPPα versus wild-type APP, 48 hours after transfection; for amount of α-secretase cleavage product: in words, versus wild-type APP. An excerpt:
(§1) BE11-hAPP695 was used as a starting material which was produced by adding a BE11 epitope tag immediately after a signal peptide of the N-terminus of a human-type APP gene (FIG. 2) and incorporating it into a vector. With respect to the amino acid at the N-treminus of the α-secretase cleavage site of APP695 (lysine at position 16 of β-amyloid) or the amino acid at the C-terminus (leucine at position 17 of β-amyloid), tryptophan was introduced into position 16 and alanine, glutamic acid, lysine, proline, glutamine, and threonine were introduced into position 17 by the site-directed mutagenesis (QuickChange, Stratagene). A construct was produced in which these mutated APPs and wild-type APPs are respectively incorporated into a pCIneo mammalian expression vector (Promega), and the construct was then transfected to a COS7 cell by a liposome method (DOTAP, Boeringer Manheim), to achieve transient expression. Forty-eight hours after transfection, the cell and culture supernatant were collected, and the expressed proteins and the processing were analyzed by 8% SDS-PAGE/Western blotting. The expression of a cell membrane-associated full-length APP confirmed using the monoclonal antibody (Mab BE11) against BE11. The expression level was standardized, and then α-secretase cleavage products (sAPPα) and β-secretase cleavage products (sAPPβ) which were secreted in the culture supernatant (medium) were detected and quantified using a specific antibody against the respective products.

The test system of the next test is β-secretase. Nature of the test: β-secretase cleavage product (sAPPβ) in culture supernatant of COS7 cells transiently expressing mutated APP, Western blotting. The class given is cell-based, monkey. Also on record: key to β-cleavage: ↓: indicates a reduced amount of secretase cleavage product; →: indicates an unchanged amount of each secretase cleavage product; ↑: indicates an increased amount of secretase cleavage product; 0: indicates no detection of each secretase cleavage product. To be noted: for β-cleavage: amount of sAPPβ versus wild-type APP, 48 hours after transfection.
Excerpt: as §1

For “Ala (position 17): human APP695 modified protein, leucine at position 17 of β-amyloid replaced with alanine”, in the test on α-secretase, the α-cleavage result was “↓” and the “amount of α-secretase cleavage product” value is reported as “decreased”. Besides, the β-cleavage entry in the test on β-secretase is listed as “→”.
Consider “Trp (position 16): human APP695 modified protein, lysine at position 16 of β-amyloid replaced with tryptophan”, for which, in the test with α-secretase, the α-cleavage result is listed as “↓↓” and the “amount of α-secretase cleavage product” value is “sharply decreased”. For the same substance, in the test on β-secretase, the β-cleavage entry is given as “→”.
Take “Lys (position 17): human APP695 modified protein, leucine at position 17 of β-amyloid replaced with lysine”: in the test with α-secretase, the α-cleavage entry is reported as “↓↓” and the “amount of α-secretase cleavage product” value is listed as “decreased”. Moreover, the β-cleavage entry in the test with β-secretase is “↑”. For the same substance, the “amount of β-secretase cleavage product” value in the test with β-secretase (in words, versus wild-type APP) was “slightly increased”.
Regarding “Glu (position 17): human APP695 modified protein, leucine at position 17 of β-amyloid replaced with glutamic acid”, in the test with α-secretase, the α-cleavage was found to be 0 and the “amount of α-secretase cleavage product” value was “No α-secretase cleavage product was detected”. For the same substance, in the test with β-secretase, the β-cleavage result is listed as “→”.
For the substance “Pro (position 17): human APP695 modified protein, leucine at position 17 of β-amyloid replaced with proline”, in the test on α-secretase, the α-cleavage came to 0 and the “amount of α-secretase cleavage product” value is “No α-secretase cleavage product was detected”. Moreover, the β-cleavage result in the test with β-secretase is “→”.
